One block for each compound: values may come before it.
How the values were obtained:
[1] = molecular target: Tyrosine-protein kinase CSK (Homo sapiens) (UniProt P41240); assay: Selectivity interaction (SelectScreen profiling (Invitrogen)) EUB0000607a CSK; conditions: at 2 µM
[2] = molecular target: Casein kinase I isoform delta (Homo sapiens, UniProt P48730); assay: Selectivity interaction (KinomeScan (DiscoverX)) EUB0000607a CSNK1D; conditions: at 10 µM
[3] = molecular target: T1, Proto-oncogene tyrosine-protein kinase Src (Homo sapiens, UniProt P12931); assay: Selectivity interaction (Upstate Kinase Profiler service (Millipore)) EUB0000056c SRC; conditions: at 1 µM
[4] = molecular target: T2, Histone-arginine methyltransferase CARM1 (Homo sapiens, UniProt Q86X55); assay: Selectivity interaction (Western Blot (dimethylation of BAF155 (BAF155me2a/BAF155) in NCI-H929 cells)) EUB0000255b CARM1; type: cell-based
T2 sequence (Q86X55 whole entry): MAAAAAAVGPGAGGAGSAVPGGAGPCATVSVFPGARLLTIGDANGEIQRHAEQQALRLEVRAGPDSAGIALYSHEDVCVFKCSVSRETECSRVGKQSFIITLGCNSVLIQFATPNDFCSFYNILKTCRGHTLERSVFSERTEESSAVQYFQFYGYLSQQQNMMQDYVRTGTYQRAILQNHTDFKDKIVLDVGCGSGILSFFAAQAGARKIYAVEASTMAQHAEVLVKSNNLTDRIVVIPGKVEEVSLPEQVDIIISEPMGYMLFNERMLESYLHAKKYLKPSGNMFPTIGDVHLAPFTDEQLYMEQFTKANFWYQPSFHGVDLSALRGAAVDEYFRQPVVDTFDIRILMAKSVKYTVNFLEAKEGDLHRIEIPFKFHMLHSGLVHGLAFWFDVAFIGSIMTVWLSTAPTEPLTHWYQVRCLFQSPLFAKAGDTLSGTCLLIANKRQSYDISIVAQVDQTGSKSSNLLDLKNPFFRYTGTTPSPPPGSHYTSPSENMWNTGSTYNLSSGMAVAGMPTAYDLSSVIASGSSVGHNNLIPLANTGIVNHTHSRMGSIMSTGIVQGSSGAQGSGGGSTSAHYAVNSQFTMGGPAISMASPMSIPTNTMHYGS

[5] = molecular target: Activated CDC42 kinase 1 (Homo sapiens, UniProt Q07912); assay: Selectivity interaction (KinomeScan (DiscoverX)) EUB0000695a TNK2; conditions: at 100 nM
[6] = molecular target: T1, Proto-oncogene tyrosine-protein kinase Src; assay: Selectivity interaction (Kinase panel (enzymatic assay)) EUB0000595a SRC
[7] = molecular target: T3, Serine/threonine-protein kinase DCLK2 (Homo sapiens) (UniProt Q8N568); assay: Selectivity interaction (KinomeScan (DiscoverX)) EUB0001049a DCLK2; conditions: at 1 µM
T3 sequence (whole entry): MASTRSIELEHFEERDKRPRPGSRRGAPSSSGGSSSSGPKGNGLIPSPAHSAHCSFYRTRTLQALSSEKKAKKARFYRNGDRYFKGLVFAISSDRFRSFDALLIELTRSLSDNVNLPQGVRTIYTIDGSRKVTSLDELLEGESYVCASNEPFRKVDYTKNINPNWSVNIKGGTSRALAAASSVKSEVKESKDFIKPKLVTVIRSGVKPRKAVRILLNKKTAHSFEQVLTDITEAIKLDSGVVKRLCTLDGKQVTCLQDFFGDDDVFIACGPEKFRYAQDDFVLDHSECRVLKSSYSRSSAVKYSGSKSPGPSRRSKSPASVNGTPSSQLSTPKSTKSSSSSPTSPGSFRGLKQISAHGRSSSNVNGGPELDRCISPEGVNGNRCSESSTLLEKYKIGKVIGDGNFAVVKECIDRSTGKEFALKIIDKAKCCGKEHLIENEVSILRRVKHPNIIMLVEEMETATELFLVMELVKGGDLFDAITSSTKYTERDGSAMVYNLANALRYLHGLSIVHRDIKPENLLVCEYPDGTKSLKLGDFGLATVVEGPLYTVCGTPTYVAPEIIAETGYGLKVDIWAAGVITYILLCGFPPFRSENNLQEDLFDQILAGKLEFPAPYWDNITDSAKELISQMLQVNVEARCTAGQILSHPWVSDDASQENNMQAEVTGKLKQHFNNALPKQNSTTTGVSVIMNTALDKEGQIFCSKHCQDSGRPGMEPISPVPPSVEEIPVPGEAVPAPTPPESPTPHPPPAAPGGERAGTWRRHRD

[8] = molecular target: T4, Serine/threonine-protein kinase TNNI3K (Homo sapiens) (UniProt Q59H18); assay: Selectivity interaction (KinomeScan (DiscoverX)) EUB0001619a TNNI3K; conditions: at 1 µM
T4 sequence (whole entry): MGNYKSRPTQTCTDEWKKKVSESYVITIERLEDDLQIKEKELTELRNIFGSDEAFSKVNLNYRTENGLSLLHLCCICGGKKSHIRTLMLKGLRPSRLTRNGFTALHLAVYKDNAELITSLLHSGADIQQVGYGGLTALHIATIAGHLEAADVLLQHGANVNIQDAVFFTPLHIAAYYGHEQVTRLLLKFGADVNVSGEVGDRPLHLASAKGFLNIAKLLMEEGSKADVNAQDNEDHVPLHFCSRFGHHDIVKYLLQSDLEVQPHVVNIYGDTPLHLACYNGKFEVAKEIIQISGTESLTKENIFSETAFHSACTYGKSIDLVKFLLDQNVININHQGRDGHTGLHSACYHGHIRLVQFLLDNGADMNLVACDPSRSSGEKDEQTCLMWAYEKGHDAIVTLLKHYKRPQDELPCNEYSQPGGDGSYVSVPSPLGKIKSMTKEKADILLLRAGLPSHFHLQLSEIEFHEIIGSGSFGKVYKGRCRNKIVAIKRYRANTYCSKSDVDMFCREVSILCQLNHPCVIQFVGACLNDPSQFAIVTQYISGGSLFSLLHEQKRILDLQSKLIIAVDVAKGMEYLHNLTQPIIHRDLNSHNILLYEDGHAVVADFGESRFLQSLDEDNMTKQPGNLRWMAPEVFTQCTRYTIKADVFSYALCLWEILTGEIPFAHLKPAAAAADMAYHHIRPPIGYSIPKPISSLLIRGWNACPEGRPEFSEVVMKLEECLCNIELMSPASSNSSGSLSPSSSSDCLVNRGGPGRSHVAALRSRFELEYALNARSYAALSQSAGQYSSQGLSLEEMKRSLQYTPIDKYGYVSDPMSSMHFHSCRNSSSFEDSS

T1 sequence (P12931 2-536 limits assumed): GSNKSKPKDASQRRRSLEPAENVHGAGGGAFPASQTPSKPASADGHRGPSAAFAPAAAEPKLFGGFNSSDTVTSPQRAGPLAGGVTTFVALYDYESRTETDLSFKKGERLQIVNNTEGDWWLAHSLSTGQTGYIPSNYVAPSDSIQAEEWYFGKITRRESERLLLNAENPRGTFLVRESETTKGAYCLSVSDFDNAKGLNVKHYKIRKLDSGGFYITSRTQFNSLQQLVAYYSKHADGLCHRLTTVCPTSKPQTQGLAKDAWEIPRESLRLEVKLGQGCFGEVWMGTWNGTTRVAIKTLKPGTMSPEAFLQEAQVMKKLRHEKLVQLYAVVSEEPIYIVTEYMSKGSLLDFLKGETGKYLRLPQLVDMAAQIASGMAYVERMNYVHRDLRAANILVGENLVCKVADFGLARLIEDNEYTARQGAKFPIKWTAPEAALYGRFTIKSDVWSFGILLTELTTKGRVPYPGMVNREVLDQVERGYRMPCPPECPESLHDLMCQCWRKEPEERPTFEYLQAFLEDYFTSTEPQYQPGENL
Chain of Tyrosine-protein kinase CSK (Homo sapiens) (P41240 2-450 limits assumed): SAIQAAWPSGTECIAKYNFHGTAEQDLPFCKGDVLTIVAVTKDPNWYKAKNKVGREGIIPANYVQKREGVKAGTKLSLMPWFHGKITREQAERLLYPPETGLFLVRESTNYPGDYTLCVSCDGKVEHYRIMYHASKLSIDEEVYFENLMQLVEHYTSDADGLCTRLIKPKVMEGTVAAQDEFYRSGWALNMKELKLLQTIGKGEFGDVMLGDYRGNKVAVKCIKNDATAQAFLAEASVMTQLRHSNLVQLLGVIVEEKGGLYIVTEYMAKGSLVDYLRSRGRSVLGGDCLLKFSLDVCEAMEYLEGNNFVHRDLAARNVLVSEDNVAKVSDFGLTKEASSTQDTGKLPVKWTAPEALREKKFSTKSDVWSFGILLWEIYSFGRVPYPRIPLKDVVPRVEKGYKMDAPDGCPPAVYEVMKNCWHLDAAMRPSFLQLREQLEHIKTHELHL
Chain of Activated CDC42 kinase 1 (Q07912 whole entry, looked up): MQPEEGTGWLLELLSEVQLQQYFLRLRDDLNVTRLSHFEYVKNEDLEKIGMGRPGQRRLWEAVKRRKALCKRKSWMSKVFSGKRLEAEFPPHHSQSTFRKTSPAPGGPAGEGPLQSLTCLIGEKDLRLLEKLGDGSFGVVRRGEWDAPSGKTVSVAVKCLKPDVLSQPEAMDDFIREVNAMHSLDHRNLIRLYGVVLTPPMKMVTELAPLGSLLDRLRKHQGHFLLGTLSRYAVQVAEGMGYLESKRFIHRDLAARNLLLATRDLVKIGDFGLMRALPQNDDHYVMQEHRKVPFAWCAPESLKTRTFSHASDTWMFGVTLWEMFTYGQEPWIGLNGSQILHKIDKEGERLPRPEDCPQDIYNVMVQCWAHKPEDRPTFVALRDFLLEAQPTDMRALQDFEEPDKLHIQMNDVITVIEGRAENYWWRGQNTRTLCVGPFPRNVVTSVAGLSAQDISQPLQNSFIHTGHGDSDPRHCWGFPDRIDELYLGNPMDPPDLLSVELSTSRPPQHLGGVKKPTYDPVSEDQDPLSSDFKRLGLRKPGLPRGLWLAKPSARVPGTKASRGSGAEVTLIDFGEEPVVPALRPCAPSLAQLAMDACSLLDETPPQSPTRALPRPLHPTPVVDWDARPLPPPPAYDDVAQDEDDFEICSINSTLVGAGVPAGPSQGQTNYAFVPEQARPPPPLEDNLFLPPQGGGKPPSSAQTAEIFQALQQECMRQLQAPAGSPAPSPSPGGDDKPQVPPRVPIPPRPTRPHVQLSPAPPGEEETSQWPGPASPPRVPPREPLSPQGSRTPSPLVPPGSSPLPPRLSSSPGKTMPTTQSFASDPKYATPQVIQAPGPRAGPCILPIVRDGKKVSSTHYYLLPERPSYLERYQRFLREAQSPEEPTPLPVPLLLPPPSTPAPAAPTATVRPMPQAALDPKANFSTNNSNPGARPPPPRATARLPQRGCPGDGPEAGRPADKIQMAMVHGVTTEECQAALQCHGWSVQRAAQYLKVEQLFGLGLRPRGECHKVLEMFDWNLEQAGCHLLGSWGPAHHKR
Chain of Casein kinase I isoform delta (P48730 whole entry, looked up, canonical isoform): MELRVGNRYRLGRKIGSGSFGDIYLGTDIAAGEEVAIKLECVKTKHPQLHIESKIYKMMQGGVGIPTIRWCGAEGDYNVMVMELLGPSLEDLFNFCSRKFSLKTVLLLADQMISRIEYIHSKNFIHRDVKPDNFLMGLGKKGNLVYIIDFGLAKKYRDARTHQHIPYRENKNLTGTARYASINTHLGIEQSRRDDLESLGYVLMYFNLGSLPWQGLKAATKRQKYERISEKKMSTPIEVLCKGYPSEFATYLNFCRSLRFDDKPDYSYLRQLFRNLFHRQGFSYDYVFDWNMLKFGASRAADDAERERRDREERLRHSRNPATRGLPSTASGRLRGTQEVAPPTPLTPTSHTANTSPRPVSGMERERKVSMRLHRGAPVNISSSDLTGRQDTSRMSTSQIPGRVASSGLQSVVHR

Compound: CNC(=O)Nc1ccc(-c2nc(N3CC4CCC(C3)O4)c3cnn(C4CCC5(CC4)OCCO5)c3n2)cc1
- % of inhibition [1]: -1%
- % of control [2]: 92%

- % of inhibition [3]: 12%
Compound: Cc1ccc(-c2ccc3c(ccc4sc5c(c43)NC[C@@H](C)NC5=O)n2)cn1

Compound: COCCN1CCC(c2cc(CN(C)C(=O)c3cccc(Oc4ccccc4)c3)ccn2)CC1
- IC50 [4]: > 0.003 µM

Compound: Cc1cc(F)c(C(=O)Nc2cccc(-c3nncn3C(C)C)n2)cc1-n1cnc(C2CC2)c1
- % of control [5]: 98%

Compound: COCC(=O)NC/C=C/c1ccc2ncnc(Nc3ccc(Oc4ccc(C)nc4)c(C)c3)c2c1 [CP-724714]
- IC50 [6]: > 10 µM

Compound: COc1cc(Nc2nc(C)cc(-c3cnn4nc(OC)ccc34)n2)cc(C(F)(F)F)c1
- % of control [7]: 84%

Compound: N#Cc1cccc(-c2c[nH]c3ncnc(N4CCOCC4)c23)c1
- % of control [8]: 74%
